# Experimental data reported in patent US20160287545A1, “COMPOUND PARTICULARLY FOR TREATING DEPRESSION AND ANXIETY” (priority 2012, published 2016).
# What was measured:
# rats = conditions: inhaling, swimming test; cited from earlier work
# [1] = rat; cited from earlier work
# CD1 mice = assay: swimming test in CD1 mice, antidepressant action of inhaled terpenes versus imipramine; format: in vivo; conditions: for isoeffect dose per body weight taking into account mean absorption factor (60%): 700x0.6, inhaling; for isoeffect dose with respect to imipramine: individual single inhalation giving approximately the same immobility time as imipramine, vaporized dose; for intrinsic activity (full agonist action, dose-effect comparison with imipramine): swimming test, inhaled; for antidepressant activity: vaporized, inhaled for 24 hours (12+12 hours); for isoeffect dose per body weight: versus 30 mg/kg of imipramine
# Experimental: 4. For each test, CD-1® (ICR) Specific Pathogen Free NAF mice (16/18 g upon arrival) were used, originating from the supplier facility Charles River Laboratories, Calco, Italy; 5 mice for the control group, 5 mice for the reference test with imipramine, 5 mice for the substance tested in the first 4 tests and then 10 mice for all the other tests. The choice of CD1 mice was determined by the fact that it is considered to be the animal model suitable for performing the swimming test for the evaluation of substances having an antidepressant action.
# 5. For terpene vaporization, “Elettromatt Turispharma” electric vaporizers were used (PCT/EP 97/01897, inventors Bevilacqua M, Zaccagna C A), heated to a constant temperature of 90° C.
# The three groups of mice were placed in three transparent plastic boxes with the size of 150 cm×75 cm and a volume di […] at a controlled temperature (19.0-21.0° C.), in air prefiltered with an HEPA absolute filter without flow, humidity (40-50%) and darkness/light cycle (12 hours/12 hours).
# The control group received the carrier (physiological solution) by IP pathway.
# The administration path of the substances being considered was intraperitoneal for imipramine and the pulmonary path was used for the terpene substances being considered, always vaporized with the same electric vaporizers.
# Reference test substance: imipramine 30 mg/Kg/ip=30.000 mcg/Kg/ip, equal to 0.6 mg per animal, administered 30 minutes before the test.
# Subsequent tests were performed with the individual components (35 mg repeated after 12 hours), in pairs (35 mg+35 mg, repeated after 12 hours) and then all three together (35+35+35 mg repeated after 12 hours).
# The treatment was performed 30 minutes before the test for the control group and for the imipramine group intraperitoneally. The third group was subject, after the T0 test, to vaporization for 24 hours (12+12 hours) of the anonymous substance being considered.
# [2] = inhalation for 2 hours during a 50 W workload, healthy volunteers; cited from earlier work
# rat = conditions: cited from earlier work
# mouse [3] = conditions: cited from earlier work
# [4] = cited from earlier work
# mouse [5] = conditions: cited from earlier work; remark: listed apart in the source
# [6] = in vivo; cited from earlier work
# [7] = cited from earlier work; remark: listed apart in the source
# patients with bulimia = conditions: followed on for two years; cited from earlier work
# [8] = 200 and 400 mg/kg orally, mouse
smiles,measurement,setting,value
"C=C(C)[C@H]1CC=C(C)CC1 [limonene, (R)-(+)-limonene]",immobility time,rats,reduces significantly the immobility time
same,oral bioavailability,[1],43.0%
same,isoeffect dose per body weight taking into account mean absorption factor (60%),CD1 mice,420 mg/kg
same,isoeffect dose with respect to imipramine,CD1 mice,70 mg
same,"intrinsic activity (full agonist action, dose-effect comparison with imipramine)",CD1 mice,1
same,antidepressant activity,CD1 mice,evident antidepressant activity
same,isoeffect dose per body weight,CD1 mice,700 mg/kg
same,"pulmonary uptake, of the administered quantity",[2],70%
"CC12CCC(CC1)C(C)(C)O2 [1,8-cineol]",isoeffect dose per body weight taking into account mean absorption factor (60%),CD1 mice,420 mg/kg
same,isoeffect dose with respect to imipramine,CD1 mice,70 mg
same,"intrinsic activity (full agonist action, dose-effect comparison with imipramine)",CD1 mice,1
same,antidepressant activity,CD1 mice,evident antidepressant activity
same,isoeffect dose per body weight,CD1 mice,700 mg/kg
same,effect of pretreatment with naloxone on anti-nociceptive action,rat; oral dose between 100 and 400 mg/kilograms,not canceled out by pretreatment with naloxone
same,anti-nociceptive action,rat; rat,comparable to morphine
same,"acute toxicity, oral dose",mouse [3],2480 mg/kg
same,time to detection in blood after inhaling,[4],5 min
same,time to concentration maximum in blood,[4]; inhaling,≤ 18 min
same,immobility time,mouse [5]; [8],significant increase in the immobility time
same,latency of pentobarbital sleep,mouse [5]; [8],reduced latency of pentobarbital sleep
same,dose observed in the literature,mouse [5]; in the mouse,200 to 400 mg/kg
same,motor coordination in the rotarod test,"mouse [5]; orally, mouse",no effects on motor coordination
"CC(=O)O[C@@H]1CC[C@@]2(C)[C@@H](CC[C@]3(C)[C@@H]2C(=O)C=C2[C@@H]4[C@@H](C)[C@H](C)CC[C@]4(C)CC[C@]23C)[C@@]1(C)C(=O)O [AKBA, acetyl-11-keto-beta-boswellic acid]",brain/plasma ratio,[6],~0.81
"CN(C)CCCN1c2ccccc2CCc2ccccc21 [imipramine, imipramine chloride hydrate]",total mean immobility time,"CD1 mice; imipramine 30 mg/Kg ip 30 minutes before the test, mean of all 9 tests, 45 mice",41.11±16.12
same,solubility,[7],50 mg/mL
same,patients with considerable success,patients with bulimia,19 out of 20
"C[C@H]1[C@H](C)CC[C@]2(C)CC[C@]3(C)C(=CC(=O)[C@@H]4[C@@]5(C)CC[C@@H](O)[C@](C)(C(=O)O)[C@@H]5CC[C@]43C)[C@H]12 [KBA, 11-keto-beta-boswellic acid]",brain/plasma ratio,[6],approximately 0.51
